Results as given in patent US20240207422A1, “NERVE TARGETING PEPTIDE CONJUGATES AND METHODS OF USE” (Alume Biosciences, Inc., priority 2022, published 2024).

Each substance was assayed on excised human nerve tissue (assay: Phage display selection on excised human nerve tissue (Nerve2, Nerve3), NextGen sequence counts). Settings: unique sequence count (relative enrichment); Nerve2 only.
Format: binding
Procedure, shortened: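 Randomized parent-peptide m13 phage libraries (about 50% mutation per residue) selected on washed excised human nerve tissue over multiple rounds, washing nerve pellet with PBS. NextGen sequencing of pools after rounds 2, 3 and 4; translated peptides counted by frequency, with counts 6 or greater retained.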
For 315 (HVPRVDHLYVETKS) [compound 315], the Count was 10. 316 (HVPSGERYYVVKTI) [compound 316] was tested, and the Count was 10. Substance 317 (HVPYVGAYNGVKKS) [compound 317] has a Count of 10. With 318 (HVQWEGPYYDVKKS) [compound 318] the Count was 10. For 319 (HVRGAELSYVLTKS) [compound 319], the Count was 10. With 320 (HVTWGEPYQVLNKS) [compound 320] the Count was 10. With 321 (KLLTEAPYMFRTQA) [compound 321] the Count was 10. Substance 322 (KLPWQESYDIVRKS) [compound 322] has a Count of 10. Work on 323 (KLQWQDPDYVVKNS) [compound 323] yielded a Count of 10. For 324 (KQLGVLPDYVRKNT) [compound 324], the Count was 10. Substance 325 (LAPFEERSYALKSP) [compound 325] has a Count of 10. 326 (LASWDEPSSVLRES) [compound 326] was tested, and the Count was 10. 327 (LLPPDEPYYPMKKS) [compound 327] gave a Count of 10. 328 (NLQWEQPSYVAKDY) [compound 328] gave a Count of 10. 329 (NVPWSEQYNALKTS) [compound 329] was tested, and the Count was 10. Substance 330 (QFASSHTDYVADKS) [compound 330] has a Count of 10. 331 (QIQWQGSYNDLNKS) [compound 331] gave a Count of 10. 332 (QISSEEPTSLLDRP) [compound 332] was tested, and the Count was 10. With 333 (QKPTGASYYGTKPS) [compound 333] the Count was 10. For 334 (QLAFDGPSPILTTS) [compound 334], the Count was 10. 335 (QLHWGQPYSILNKS) [compound 335] gave a Count of 10. In the case of 336 (QLPCEVPCYLVQYS) [compound 336], the Count is reported as 10. For 337 (QLPLQYRYYFVDQS) [compound 337], the Count was 10. Work on 338 (QLPWEGKYQLGKKR) [compound 338] yielded a Count of 10. 339 (QLRWHEPYHVVNRY) [compound 339] gave a Count of 10. Substance 340 (QSQCAGPGSAYKKC) [compound 340] has a Count of 10. Substance 341 (QTLAGETNSVVLKF) [compound 341] has a Count of 10. 342 (QTQCEEPCYVVKFA) [compound 342] gave a Count of 10. 343 (QVPSEEQFYAAVKS) [compound 343] was tested, and the Count was 10. With 344 (QVPSENPFRVLKNL) [compound 344] the Count was 10. Work on 345 (QVRYVASSDLVRIP) [compound 345] yielded a Count of 10. Work on 346 (QVSLQEPGDVLKEF) [compound 346] yielded a Count of 10. Substance 347 (QVSREEPSGVVNKP) [compound 347] has a Count of 10. Substance 348 (RLPSEALYYLVKRS) [compound 348] has a Count of 10. 349 (YVPVEGIQHVVEKS) [compound 349] showed a Count of 10.

Same assay, conditions: unique sequence count (relative enrichment); Nerve3 only
With 350 (HVRCEEPYCHVRKS) [compound 350] the Count was 755. Work on 351 (ELPWQKRKDVMKYP) [compound 351] yielded a Count of 638. 352 (QMPWEVPYYVVKRS) [compound 352] was tested, and the Count was 548. In the case of 353 (DDIWEVPKYRPKNS) [compound 353], the Count is reported as 475. In the case of 354 (QIASEERDNIVKKS) [compound 354], the Count is reported as 462. 355 (RVPWQEPYYVVLKP) [compound 355] showed a Count of 419. 356 (QLPGYEPYYVGTVS) [compound 356] showed a Count of 412. 357 (RIPSVGPYGVVKTF) [compound 357] was tested, and the Count was 391. Work on 358 (QDVWAEPYYAGKQP) [compound 358] yielded a Count of 390. For 359 (HVAWQEPRYFVKKS) [compound 359], the Count was 359. For 360 (YLFAEELAYNLTKS) [compound 360], the Count was 359. In the case of 361 (QRPWEQAYFVVRST) [compound 361], the Count is reported as 357. 362 (FVSREEPYYVVKKS) [compound 362] gave a Count of 341. Substance 363 (DVAREKPYYDMKKS) [compound 363] has a Count of 335. Work on 364 (QFPSVGSYYVVPQS) [compound 364] yielded a Count of 331. In the case of 365 (HVVWESSHFVVIDS) [compound 365], the Count is reported as 329. Work on 366 (QLRLGDLYNVMTKE) [compound 366] yielded a Count of 328. For 367 (QFQWQELLNVVKDS) [compound 367], the Count was 327. For 368 (HVPLQEADYVLKKF) [compound 368], the Count was 315. 369 (QFPLYDPYEVMPKS) [compound 369] was tested, and the Count was 310. 370 (HFRWDEPYYIANKA) [compound 370] was tested, and the Count was 300. In the case of 371 (RDRHEDSKFVMNHS) [compound 371], the Count is reported as 290. For 372 (QVPFAHPYYVVNMS) [compound 372], the Count was 288. Substance 373 (HVRWGEPSYVLKNF) [compound 373] has a Count of 272. Work on 374 (QGQTETHSHDAKRY) [compound 374] yielded a Count of 270. 375 (QLRFEGPDNPGVQS) [compound 375] gave a Count of 269. 376 (QLPWEVPYSVVRQS) [compound 376] was tested, and the Count was 267. 377 (HVPLPGPYFVLKNY) [compound 377] showed a Count of 263. For 378 (HVKRIETYYVFTKS) [compound 378], the Count was 258. 379 (RIHLYQPYSILKNY) [compound 379] gave a Count of 258. In the case of 380 (QFTSEETHYVVNKS) [compound 380], the Count is reported as 257. Work on 381 (QHPWEDPYKIFNKY) [compound 381] yielded a Count of 240. In the case of 382 (DVPWPNAYNFGIKS) [compound 382], the Count is reported as 238. In the case of 383 (DVPFEHSYYGEQQY) [compound 383], the Count is reported as 237. 384 (EFLGEAPYYVVSRS) [compound 384] showed a Count of 236. Work on 385 (HVSGEEPYTVGNTS) [compound 385] yielded a Count of 234. In the case of 386 (QFQLDQSYYSFNTL) [compound 386], the Count is reported as 231. Substance 387 (QILRVHPDYVVVNP) [compound 387] has a Count of 231. 388 (HFPWDEAYLVVKNP) [compound 388] gave a Count of 230. Work on 389 (HFSSQESNSGGKKW) [compound 389] yielded a Count of 230. 390 (HISGEDPYFILQNS) [compound 390] was tested, and the Count was 212. With 391 (TFQYEQPNLVVKNA) [compound 391] the Count was 207. 392 (LLAWDEQDYFLRKT) [compound 392] was tested, and the Count was 199. In the case of 393 (HINWDKRYAVVITY) [compound 393], the Count is reported as 197. With 394 (HFPSEYPFDLVSKS) [compound 394] the Count was 196. In the case of 395 (QFLWQQPDHVRRKS) [compound 395], the Count is reported as 196. With 396 (QIVLNAPYYVVKTS) [compound 396] the Count was 189. In the case of 397 (TVPAHNPYYLVKQT) [compound 397], the Count is reported as 185. In the case of 398 (QDPSVDPYYVDRSS) [compound 398], the Count is reported as 181. Substance 399 (QFHCHGACYIVKNS) [compound 399] has a Count of 180. For 400 (RLPQHESYIVGKIS) [compound 400], the Count was 174. 401 (RVYWIDPYYIVNES) [compound 401] gave a Count of 174. For 402 (QIPLKTPYNVVKKF) [compound 402], the Count was 171. 403 (QFPQGEAGYIAKSF) [compound 403] gave a Count of 163. Substance 404 (QFYWDQSNYGEQKP) [compound 404] has a Count of 161. In the case of 405 (HVPWAGSSDVLKVT) [compound 405], the Count is reported as 160. Work on 406 (QVPWEKPVSFVQKS) [compound 406] yielded a Count of 159. 407 (HVWWEDPYYVVRKT) [compound 407] showed a Count of 158. Substance 408 (WLHWEQPYWTVKKS) [compound 408] has a Count of 143. 409 (LFAGENGYFTVRQF) [compound 409] was tested, and the Count was 139. For 410 (QVSWVYPPNDVIVS) [compound 410], the Count was 133. 411 (NDPWPVPYYMVKNS) [compound 411] showed a Count of 130. For 412 (QVQWQVPYYVVKKP) [compound 412], the Count was 128. Work on 413 (HFPLQEPYYVVKNS) [compound 413] yielded a Count of 127. 414 (QGSSVATSSVLTML) [compound 414] was tested, and the Count was 123. 415 (QPCADKPYCVHTIT) [compound 415] showed a Count of 123. Work on 416 (HVWWEEAHYSWKHS) [compound 416] yielded a Count of 120. 417 (DLFVEEPYLGVIKF) [compound 417] gave a Count of 117. In the case of 418 (YSLWEDLIFNMQNS) [compound 418], the Count is reported as 116. Substance 419 (QIPWVEASNVLISF) [compound 419] has a Count of 115. With 420 (QFGQENHNHFVRKS) [compound 420] the Count was 113. For 421 (QVSLVESRSVLKIL) [compound 421], the Count was 110. Work on 422 (AVQRAKPYYAVQNS) [compound 422] yielded a Count of 109. 423 (HLLGDYRFWAFTNA) [compound 423] was tested, and the Count was 109. Work on 424 (ESPWAPPYYVVKKS) [compound 424] yielded a Count of 107. 425 (QIPTVEPYYEGKKS) [compound 425] gave a Count of 105. With 426 (QVRGGQPDQVLRLS) [compound 426] the Count was 105. Substance 427 (FVARNEPFYVVGTS) [compound 427] has a Count of 104. 428 (QIPLEEMYYVVRTY) [compound 428] gave a Count of 103. 429 (QVSSVGPNHVVKKI) [compound 429] showed a Count of 102. 430 (QLPWGKPYNVVVYS) [compound 430] showed a Count of 101. For 431 (QTPWQVPGYNMLNS) [compound 431], the Count was 99. Substance 432 (AYLSEQLNYVMKNS) [compound 432] has a Count of 98. 433 (QASSEAPSYPVVKS) [compound 433] showed a Count of 95. 434 (LDQWHTPNYVVRKS) [compound 434] showed a Count of 92. Work on 435 (QLLWDPPSYFVNNS) [compound 435] yielded a Count of 92. 436 (DVPWEQPYFVVRNS) [compound 436] was tested, and the Count was 90. 437 (QVPYGQSFVVGTSS) [compound 437] showed a Count of 90. 438 (QLRWEDQYAHVEKS) [compound 438] gave a Count of 89. In the case of 439 (HVAWKAPYHFTKNS) [compound 439], the Count is reported as 87. Substance 440 (DGLYVRSFYVLQHS) [compound 440] has a Count of 86.
